# Measured values from patent publication US10246411B2, “(Z)-3,4,5-trimethoxystyrylbenzenesulfonamides as potential anticancer agents” (COUNCIL OF SCIENTIFIC & INDUSTRIAL RESEARCH, priority 2014, dated 2019).
# Assays:
# HL-60(TB) = assay: In vitro cytotoxicity (NCI protocol, SRB), HL-60(TB); assay type: cell-based; conditions: Homo sapiens, Leukemia HL-60(TB), 48 h exposure
# HT29 = assay: In vitro cytotoxicity (NCI protocol, SRB), HT29; conditions: Homo sapiens, HT-29, 48 h
# KM12 = assay: In vitro cytotoxicity (NCI protocol, SRB), KM12; conditions: Homo sapiens, KM12, 48 h
# U251 = assay: In vitro cytotoxicity (NCI protocol, SRB), U251; conditions: Homo sapiens, U-251, 48 h
# K-562 = assay: In vitro cytotoxicity (NCI protocol, SRB), K-562; conditions: Homo sapiens, K562, 48 h
# ACHN = assay: In vitro cytotoxicity (NCI protocol, SRB), ACHN; conditions: Homo sapiens, 48 h
# SN12C = assay: In vitro cytotoxicity (NCI protocol, SRB), SN12C; conditions: Homo sapiens, 48 h
# TK-10 = assay: In vitro cytotoxicity (NCI protocol, SRB), TK-10; conditions: Homo sapiens, TK-10, 48 h
# UO-31 = assay: In vitro cytotoxicity (NCI protocol, SRB), UO-31; conditions: Homo sapiens, UO-31, 48 h
# HOP-62 = assay: In vitro cytotoxicity (NCI protocol, SRB), HOP-62; conditions: Homo sapiens, HOP-62, 48 h
# HCT-15 = assay: In vitro cytotoxicity (NCI protocol, SRB), HCT-15; conditions: Homo sapiens, HCT-15, 48 h
# SF-295 = assay: In vitro cytotoxicity (NCI protocol, SRB), SF-295; conditions: Homo sapiens, SF-295, 48 h
# IGROV1 = assay: In vitro cytotoxicity (NCI protocol, SRB), IGROV1; conditions: Homo sapiens, IGROV-1, 48 h
# BT-549 = assay: In vitro cytotoxicity (NCI protocol, SRB), BT-549; conditions: Homo sapiens, BT-549, 48 h
# HCT-116 = assay: In vitro cytotoxicity (NCI protocol, SRB), HCT-116; conditions: Homo sapiens, HCT-116, 48 h
# CCRF-CEM = assay: In vitro cytotoxicity (NCI protocol, SRB), CCRF-CEM; conditions: Homo sapiens, 48 h
# UACC-62 = assay: In vitro cytotoxicity (NCI protocol, SRB), UACC-62; conditions: Homo sapiens, UACC-62, 48 h
# OVCAR-3 = assay: In vitro cytotoxicity (NCI protocol, SRB), OVCAR-3; conditions: Homo sapiens, OVCAR-3, 48 h
# OVCAR-8 = assay: In vitro cytotoxicity (NCI protocol, SRB), OVCAR-8; conditions: Homo sapiens, OVCAR-8, 48 h
# RXF 393 = assay: In vitro cytotoxicity (NCI protocol, SRB), RXF 393; conditions: Homo sapiens, RXF 393, 48 h
# NCI-H226 = assay: In vitro cytotoxicity (NCI protocol, SRB), NCI-H226; conditions: Homo sapiens, NCI-H226, 48 h
# NCI-H460 = assay: In vitro cytotoxicity (NCI protocol, SRB), NCI-H460; conditions: Homo sapiens, NCI-H460, 48 h
# NCI-H522 = assay: In vitro cytotoxicity (NCI protocol, SRB), NCI-H522; conditions: Homo sapiens, NCI-H522, 48 h
# MALME-3M = assay: In vitro cytotoxicity (NCI protocol, SRB), MALME-3M; conditions: Homo sapiens, 48 h
# SK-MEL-2 = assay: In vitro cytotoxicity (NCI protocol, SRB), SK-MEL-2; conditions: Homo sapiens, SK-MEL-2, 48 h
# RPMI-8226 = assay: In vitro cytotoxicity (NCI protocol, SRB), RPMI-8226; conditions: Homo sapiens, RPMI-8226, 48 h
# A549/ATCC = assay: In vitro cytotoxicity (NCI protocol, SRB), A549/ATCC; conditions: Homo sapiens, A549, 48 h
# SK-MEL-28 = assay: In vitro cytotoxicity (NCI protocol, SRB), SK-MEL-28; conditions: Homo sapiens, SK-MEL-28, 48 h
# MDA-MB-435 = assay: In vitro cytotoxicity (NCI protocol, SRB), MDA-MB-435 (breast panel line); conditions: Homo sapiens, MDA-MB-435, 48 h
# T-47D = assay: In vitro cytotoxicity (NCI protocol, SRB), T-47D; conditions: Homo sapiens, T47D, 48 h
SMILES,GI50 (HL-60(TB)) [nM],GI50 (HT29) [nM],GI50 (KM12) [nM],GI50 (U251) [nM],GI50 (K-562) [nM],GI50 (ACHN) [nM],GI50 (SN12C) [nM],GI50 (TK-10) [nM],GI50 (UO-31) [nM],GI50 (HOP-62) [nM],GI50 (HCT-15) [nM],GI50 (SF-295) [nM],GI50 (IGROV1) [nM],GI50 (BT-549) [nM],GI50 (HCT-116) [nM],GI50 (CCRF-CEM) [nM],GI50 (UACC-62) [nM],GI50 (OVCAR-3) [nM],GI50 (OVCAR-8) [nM],GI50 (RXF 393) [nM],further results
"COc1ccc(S(=O)(=O)Nc2cc(/C=C\c3cc(OC)c(OC)c(OC)c3)ccc2OC)cc1 [12a, (Z)-4-methoxy-N-(2-methoxy-5-(3,4,5-trimethoxystyryl)phenyl)benzenesulfonamide]",195,81,73.8,108,53,58.7,682,76.8,131,41,62.3,39.3,166,197,79.7,176,49,52.8,276,81.4,GI50 (NCI-H226): 12800 nM; GI50 (NCI-H460): 178 nM; GI50 (NCI-H522): 20.4 nM; GI50 (MALME-3M): 52.7 nM; GI50 (SK-MEL-2): 80.3 nM; GI50 (RPMI-8226): 319 nM; GI50 (A549/ATCC): 159 nM; GI50 (SK-MEL-28): 143 nM; GI50 (MDA-MB-435): 168 nM
"COc1ccc(S(=O)(=O)Nc2c(/C=C\c3cc(OC)c(OC)c(OC)c3)ccc(OC)c2O)cc1 [17a, (Z)—N-(2-hydroxy-3-methoxy-6-(3,4,5-trimethoxystyryl)phenyl)-4-methoxybenzenesulfonamide]",23.5,1400,35.5,37.4,28.6,61.3,86.9,73.2,61.9,39.7,36.6,33.9,54,50.1,32,30.1,38.9,33.9,46.6,31.8,GI50 (NCI-H226): 4130 nM; GI50 (NCI-H460): 36.8 nM; GI50 (NCI-H522): 20.2 nM; GI50 (MALME-3M): 1510 nM; GI50 (SK-MEL-2): 43.7 nM; GI50 (RPMI-8226): 46.9 nM; GI50 (A549/ATCC): 45.9 nM; GI50 (MDA-MB-435): 43.9 nM
"COc1ccc(/C=C\c2cc(OC)c(OC)c(OC)c2)c(NS(=O)(=O)c2ccc(Cl)cc2)c1O [17c, (Z)-4-chloro-N-(2-hydroxy-3-methoxy-6-(3,4,5-trimethoxystyryl)phenyl)benzenesulfonamide]",33.1,2760,127,287,32.3,83.8,708,998,73.9,671,53,256,379,353,114,159,63.5,60.2,294,35.5,GI50 (NCI-H226): 24900 nM; GI50 (NCI-H460): 316 nM; GI50 (NCI-H522): 84.8 nM; GI50 (SK-MEL-2): 65.9 nM; GI50 (RPMI-8226): 207 nM; GI50 (A549/ATCC): 270 nM; GI50 (SK-MEL-28): 84.1 nM; GI50 (MDA-MB-435): 36.7 nM
"COc1cc(/C=C\c2cc(OC)c(OC)c(OC)c2)cc(NS(=O)(=O)c2ccc(Cl)cc2)c1OC [13c, (Z)-4-chloro-N-(2,3-dimethoxy-5-(3,4,5-trimethoxystyryl)phenyl)benzenesulfonamide]",249,348,572,461,306,586,750,779,696,414,399,319,914,966,469,388,435,364,600,272,GI50 (T-47D): 381 nM; GI50 (NCI-H226): 13500 nM; GI50 (NCI-H460): 364 nM; GI50 (NCI-H522): 209 nM; GI50 (SK-MEL-2): 613 nM; GI50 (RPMI-8226): 387 nM; GI50 (A549/ATCC): 716 nM; GI50 (SK-MEL-28): 1140 nM; GI50 (MDA-MB-435): 271 nM
"COc1ccc(S(=O)(=O)Nc2cc(/C=C\c3cc(OC)c(OC)c(OC)c3)cc(OC)c2OC)cc1 [13a, (Z)—N-(2,3-dimethoxy-5-(3,4,5-trimethoxystyryl)phenyl)-4-methoxybenzenesulfonamide]",23.4,33.1,39.7,35.7,27.2,57,69.8,65,63.6,40.5,35.8,31.1,57.7,42.5,35,32.9,46.1,34.5,45.9,40.1,GI50 (T-47D): 5210 nM; GI50 (NCI-H226): 27300 nM; GI50 (NCI-H460): 36.7 nM; GI50 (NCI-H522): 19.7 nM; GI50 (MALME-3M): 12600 nM; GI50 (SK-MEL-2): 37.4 nM; GI50 (RPMI-8226): 45.9 nM; GI50 (A549/ATCC): 47.4 nM; GI50 (SK-MEL-28): 76.5 nM; GI50 (MDA-MB-435): 42 nM
